The target of the assay is T1, hSTING (Homo sapiens, UniProt Q86WV6, G230A/H232R/R293Q/R71H).
T1 construct: host or cells: THP1-Dual KO-IFNAR2 cells
The experiment in a line: STING reporter assay: luciferase reporter activity in THP1-Dual KO-IFNAR2 cells stimulated with 2'3'cGAMP. Conditions: 15 μM 2'3'cGAMP, 24 h. It counts as cell-based. On the procedure:
STING pathway activation by the compounds described herein is measured using THP1-Dual™ cells (KO-IFNAR2).
THP1-Dual™ KO-IFNAR2 Cells (obtained from invivogen) are maintained in RPMI, 10% FCS, 5 ml P/S, 2 mM L-glut, 10 mM Hepes, and 1 mM sodium pyruvate. Compounds are spotted in empty 384 well tissue culture plates (Greiner 781182) by Echo for a final concentration of 0.0017-100 μM. Cells are plated into the TC plates at 40 μL per well, 2×10E6 cells/mL. For activation with STING ligand, 2′3′cGAMP (MW 718.38, obtained from Invivogen), is prepared in Optimem media.
The following solutions are prepared for each 1×384 plate: • Solution A: 2 mL Optimem with one of the following stimuli: • 60 uL of 10 mM 2′3′cGAMP->150 μM stock • Solution B: 2 mL Optimem with 60 μL Lipofectamine 2000->Incubate 5 min at RT
2 mL of solution A and 2 ml Solution B is mixed and incubated for 20 min at room temperature (RT). 20 uL of transfection solution (A+B) is added on top of the plated cells, with a final 2′3′cGAMP concentration of 15 μM. The plates are then centrifuged immediately at 340 g for 1 minute, after which they are incubated at 37° C. 5% CO2, >98% humidity for 24 h. Luciferase reporter activity is then measured. EC50 values are calculated by using standard methods known in the art.
Luciferase reporter assay: 10 μL of supernatant from the assay is transferred to white 384-plate with flat bottom and squared wells, one pouch of QUANTI-Luc™ Plus is dissolved in 25 mL of water. 100 μL of QLC Stabilizer per 25 mL of QUANTI-Luc™ Plus solution is added. 50 μL of QUANTI-Luc™ Plus/QLC solution per well is then added. Luminescence is measured on a Platereader (e.g., Spectramax I3X (Molecular Devices GF3637001)).
Luciferase reporter activity is then measured. EC50 values are calculated by using standard methods known in the art.
A general note: Reporter assays use an easily measured gene product as a stand-in for the process of interest.

pEC50: −log10 of the molar value.

T1 sequence (Q86WV6 whole entry R71H/G230A/H232R/R293Q): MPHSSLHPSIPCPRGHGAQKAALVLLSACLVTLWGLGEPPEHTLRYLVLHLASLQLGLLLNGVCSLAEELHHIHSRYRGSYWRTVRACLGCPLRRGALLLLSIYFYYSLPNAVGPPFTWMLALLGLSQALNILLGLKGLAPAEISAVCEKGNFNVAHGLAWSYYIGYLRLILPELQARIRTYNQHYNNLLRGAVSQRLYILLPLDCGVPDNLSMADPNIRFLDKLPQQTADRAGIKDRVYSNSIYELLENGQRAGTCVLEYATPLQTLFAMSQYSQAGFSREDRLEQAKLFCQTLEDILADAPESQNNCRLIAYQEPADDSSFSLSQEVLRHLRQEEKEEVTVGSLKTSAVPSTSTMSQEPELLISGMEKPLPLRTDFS

For the compound `O=C(Nc1ccc(C(F)(F)F)cc1)Nc1cn[nH]c1` [Compound 57], the pEC50 (usually the EC50 on a negative log10 scale, so that one unit is a factor of ten) was 4.00 to 5.30.
Then `CCCCc1ccc(NC(=O)Nc2c[nH]nc2C)cc1` [Compound 41], with 4.00 to 5.30.
Then `O=C(Nc1c[nH]nc1-c1ccccc1)NC1CCC2(CCC2)CC1` [Compound 40], with 4.00 to 5.30; and `CCCCc1ccc(NC(=O)Nc2c[nH]nc2-c2ccccc2)cc1` [Compound 59, l-(4-Butylphenyl)-3-(3-phenyl-1H-pyrazol-4-yl)urea], with > 5.30.
Then `CCCCc1ccc(NC(=O)Nc2c[nH]nc2C2CCCCC2)cc1` [Compound 44], with 4.00 to 5.30; and `CCCCc1ccc(NC(=O)N2CCCc3n[nH]cc32)cc1` [Compound 60], with 4.00 to 5.30.
The compound `O=C(Nc1ccc(C2CCCCC2)cn1)Nc1c[nH]nc1-c1ccccc1` [Compound 38] had a pEC50 of 4.00 to 5.30.
Then `CCCCC1CCC(NC(=O)Nc2c[nH]nc2-c2ccccc2)CC1` (stereo not drawn) [Compound 54], with 4.00 to 5.30; and `O=C(Nc1ccc(C(F)(F)F)cn1)Nc1c[nH]nc1-c1ccccc1` [Compound 39], with > 5.30.
Next, `CCCCc1ccc(NC(=O)Nc2c[nH]nc2-c2ccsc2)cc1` [Compound 42]: > 5.30; `CCCCc1ccc(NC(=O)Nc2c[nH]nc2-c2ccccn2)cc1` [Compound 47]: > 5.30.
For the compound `CCCCc1ccc(NC(=O)Nc2c[nH]nc2-c2nccs2)cc1` [Compound 43], the pEC50 is > 5.30.
Next, `O=C(Nc1ccc(C(F)(F)F)cc1)Nc1c[nH]nc1-c1ccccc1` [Compound 58]: 4.00 to 5.30.
Next, `CC(C)(C)C1CCC(NC(=O)Nc2c[nH]nc2-c2ccccc2)CC1` (stereo not drawn) [Compound 48]: 4.00 to 5.30; `O=C(Nc1ccc(C2CCCCC2)nc1)Nc1c[nH]nc1-c1ccccc1` [Compound 36]: > 5.30; `O=C(Nc1c[nH]nc1-c1ccccc1)NC1CCc2ccccc2C1` (stereo not drawn) [Compound 49]: 4.00 to 5.30.
Regarding `CCCCc1ccc(NC(=O)Nc2c[nH]nc2-c2ccccc2F)cc1` [Compound 45], the pEC50 was > 5.30.
As to `O=C(Nc1cccc(C(F)(F)F)c1)Nc1c[nH]nc1-c1ccccc1` [Compound 56], the pEC50 was 4.00 to 5.30.
Next, `O=C(Nc1c[nH]nc1-c1ccccc1)NC1CCC(c2ccccc2)CC1` (stereo not drawn) [Compound 55]: 4.00 to 5.30; `O=C(Nc1c[nH]nc1-c1ccccc1)NC1CCCc2ccccc21` (stereo not drawn) [Compound 50]: 4.00 to 5.30; `O=C(Nc1c[nH]nc1-c1ccccc1)NC1CCCC(c2ccccc2)C1` (stereo not drawn) [Compound 51, 3-(3-Phenyl-1H-pyrazol-4-yl)-1-(3-phenylcyclohexyl)urea]: 4.00 to 5.30.
Consider `CCCCc1cccc(NC(=O)Nc2c[nH]nc2-c2ccccc2)c1` [Compound 46], for which the negative-log EC50 (pEC50) is 4.00 to 5.30.
Next, `O=C(Nc1ccc(C(F)(F)F)nc1)Nc1c[nH]nc1-c1ccccc1` [Compound 37]: 4.00 to 5.30; `CCCCc1ccc(NC(=O)Nc2cn[nH]c2)cc1` [Compound 52]: 4.00 to 5.30.

The values are drawn from patent US20210236466A1, “COMPOUNDS AND COMPOSITIONS FOR TREATING CONDITIONS ASSOCIATED WITH STING ACTIVITY” (IFM Due, Inc., priority 2018, published 2021).
